In assay [1] the test system is vaccinated splenocytes from lrp8−/− mice. Briefly: Cytokine production of vaccinated splenocytes from lrp8−/− mice co-cultured with immunogenic B16 cells (ELISA, multiplex). Type of assay: cell-based, mouse. The text has this:
To functionally define the role of the lrp8 receptor engagement in apoE suppression, vaccinated splenocytes from lrp8^−/− mice were isolated. These cells were co-cultured with BET/JQ1 treated (Myc-suppressed) immunogenic B16 cells for 48 hr with or without exposure to the apoE mimetic COG133. […] In addition, using ProcartaPlex multiplex immunoassay, we also quantified other cytokines/chemokines produced in the reaction. […] These included effector function: IFNγ; stimulator function, IL18, GM-CSF, G-CSF; inflammatory cytokines: IL2, IL3, IL4, IL5, IL9, IL13, IL23, IL12p70; chemo attractant factors: MCP-1, MCP3, MIP-1α, CCL-5 (Rantes); and regulatory factors: IL6, IL-10 (P<0.05). […] Cell culture supernatant was collected after centrifuge at 1,200 rpm for 10 min at 4° C. The concentrations of the following immune molecules were determined using the mouse Cytokine & Chemokine 36-plex ProcartaPlex Panel, a magnetic bead-based multiplex immunoassay (Thermo Scientific) following our previous protocol(19). Briefly, cell culture supernatant samples were mixed with antibody-linked polystyrene beads on a 96-well plate and incubated at room temperature (RT) for 2 h on an orbital shaker at 500 rpm. After washing, plates were incubated with biotinylated detection antibody for 30 min at RT. Plates were then washed twice and then labeled beads were resuspended in streptavidin-PE. Each sample was measured in duplicate along with standards (8-point dilutions) and the buffer control. Plates were read using a Luminex Bio-plex 200 system (Bio-Rad Corp.) for quantitative analysis. WT and apoE^−/− mice or WT and lrp8^−/− mice, were inoculated with either WT B16 or apoE^−/− B16 cells, with anti-CTLA4 antibody on day 0. These vaccinated splenocytes (VS) were harvested on day 7 and co-cultured with either WT B16 or apoE^−/− B16 cells for 48 hr, following which IFNγ levels in media were compared with ELISA assay. […] Readings were measured at 450 nm using the EnSpire 2300 Multilabel plate reader (Perkin Elmer, Waltham, Massachusetts, US).
On the technique in general: In an ELISA, binding on a coated surface is turned into a signal by an enzyme label.

Assay [2] deals with Mouse bone-marrow derived dendritic cells (DC). Briefly: Cytokine production of TLR7/8 activated bone-marrow derived dendritic cells, multiplex ELISA. Type of assay: cell-based. As to conditions: 48 hr. The procedure:
Mouse bone-marrow derived dendritic cells (DC) were cultured in the presence of the indicated concentrations of apoE agonist COG133 for 48 hr. COG133 increased the production of anti-inflammatory IL-10, GM-CSF, and chemokines MCP-1 and MCP-3 by TLR7/8 activated DC while decreasing the levels of proinflammatory cytokines IL-1α, IL-1β and IL-23 in a dose-dependent manner as determined by multiplex ELISA.
Cell culture supernatant was collected after centrifuge at 1,200 rpm for 10 min at 4° C. The concentrations of the following immune molecules were determined using the mouse Cytokine & Chemokine 36-plex ProcartaPlex Panel, a magnetic bead-based multiplex immunoassay (Thermo Scientific) following our previous protocol(19). Briefly, cell culture supernatant samples were mixed with antibody-linked polystyrene beads on a 96-well plate and incubated at room temperature (RT) for 2 h on an orbital shaker at 500 rpm. After washing, plates were incubated with biotinylated detection antibody for 30 min at RT. Plates were then washed twice and then labeled beads were resuspended in streptavidin-PE. Each sample was measured in duplicate along with standards (8-point dilutions) and the buffer control. Plates were read using a Luminex Bio-plex 200 system (Bio-Rad Corp.) for quantitative analysis.

Another assay concerns activated mouse T cells. Briefly: Viability of CD3/CD28-activated T cells, flow cytometry with Sytox Red dead cell stain. To be noted: T cells activated with CD3/CD28 dynabeads; COG133 0, 3, 9, 15 and 30 μM; 48 hr. Type of assay: cell-based. The procedure:
FIG. 14A: T cells isolated from naïve mouse spleens were cultured in RPMI media, WT B16 conditioned media and apoE^−/− B16 conditioned media for 48 hr and the media was analyzed with ProcartaPlex multiplex immunoassay. […] Remarkably, these effects were reversed by incubating T-cells with conditioned media from apoE^−/− cells, similar to T-cells activated in control RPMI media alone. Results are expressed as mean score±SD. *p<0.05; **p<0.005; ***p<0.001, determined by unpaired two-tailed Student's t-test. FIG. 14B: The effect of apoE agonist peptide COG133 on the viability of activated mouse T cells was tested by culturing the cells in the presence of the indicated concentrations of peptide for 48 hr and cell death was quantified with flow cytometry using the APC-conjugated Sytox Red dead cell stain. […] The number in Quadrant 2 is the percentage of dead cells.
T cells were activated with CD3/CD28 dynabeads and the effects of COG133 (0, 3, 9, 15 and 30 μM concentrations) on T cell apoptosis were evaluated.
Spleens were collected from mice euthanized by C02 narcosis and cervical dislocation. Spleens were pulverized through a 40-μm mesh cell strainer and treated with ACK lysing buffer (Thermo Fisher) for 10 seconds to remove erythrocytes. […]
In general terms: Flow cytometry measures light scatter and fluorescence of single cells or particles in a stream.

“Also recorded” adds a separate entry of the source.

“COG133: a fragment of apoE peptide, which competes with the apoE holoprotein for binding the LDL receptors and acts as an apoE mimetic”: the “detectable cytokines with pattern similar to IFNγ: inhibition in WT mice, reversed in lrp8−/− splenocytes” value in assay [1] (ProcartaPlex multiplex, with or without COG133, 48 hr) is reported as “Seventeen out of 27”. Further, the “IFNγ production from lrp8−/− vaccinated splenocytes” value in assay [1] (co-culture with BET/JQ1 treated B16 cells 48 hr, with COG133) is on record as “inhibitory effect was lacking; also recorded: suppression did not occur”. Also, in assay [1] (co-culture with Myc-inhibited B16 cells 48 hr, multiplex immunoassay (FIG. 18)), the “IL-13, IL-4, IL22, IL18, MCP-1, RANTES and Gro-α, lrp8−/− vaccinated splenocytes” value was “suppressive effect is diminished”. In assay [2] (dose dependent), the “IL-1α, IL-1β and IL-23 levels of activated DC” value was “suppressed; also recorded: decreasing”; the “secretion of anti-inflammatory cytokine IL-10 from activated DC” value is recorded as “induced secretion”. Further, in assay [2] (indicated concentrations, multiplex ELISA (FIG. 16)), the “production of IL-10, GM-CSF, MCP-1 and MCP-3 by TLR7/8 activated DC” value was “increased”. In addition, the T cell viability entry with activated mouse T cells is recorded as “diminished in a dose dependent manner; also recorded: decreases in a dose dependent fashion”.
